Our source for the T/C values is PubChem BioAssay AID330 (DTP/NCI, 2004).

The assay concerns P388 leukemia ip, CD2F1 mice, survival T/C. Description: NCI In Vivo Anticancer Drug Screen. Data for tumor model P388 Leukemia (intraperitoneal) in CD2F1 (CDF1) mice. The settings on record: endpoint: median survival time, higher = longer survival. Put shortly:
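Mice carrying the transplanted tumor received test compound or vehicle. Survival was recorded in each group, and the value is the treated-group measurement divided by that of the vehicle-treated control group.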

Where [1] appears, read: dose: 50.0 mg/kg/injection, schedule: Q01DX009 (ip), vehicle: Klucel (hydroxypropylcellulose) (HPC).
Setting [2] is: dose: 100.0 mg/kg/injection, schedule: Q01DX009 (ip), vehicle: Klucel (hydroxypropylcellulose) (HPC).
Setting [3] is: dose: 200.0 mg/kg/injection, schedule: Q01DX009 (ip), vehicle: Klucel (hydroxypropylcellulose) (HPC).
Setting [4] is: dose: 100.0 mg/kg/injection, schedule: Q01DX009 (ip), vehicle: saline with Tween-80.
The mark [5] stands for this setting: dose: 200.0 mg/kg/injection, schedule: Q01DX009 (ip), vehicle: saline with Tween-80.
The mark [6] stands for this setting: dose: 30.0 mg/kg/injection, schedule: Q01DX005 (ip), vehicle: Klucel (hydroxypropylcellulose) (HPC).
The mark [7] stands for this setting: dose: 50.0 mg/kg/injection, schedule: Q01DX009 (ip), vehicle: saline.
The mark [8] stands for this setting: dose: 100.0 mg/kg/injection, schedule: Q01DX009 (ip), vehicle: saline.
Setting [9] is: dose: 200.0 mg/kg/injection, schedule: Q01DX009 (ip), vehicle: saline.
[10] abbreviates: dose: 12.5 mg/kg/injection, schedule: Q01DX009 (ip), vehicle: Klucel (hydroxypropylcellulose) (HPC).
The mark [11] stands for this setting: dose: 25.0 mg/kg/injection, schedule: Q01DX009 (ip), vehicle: Klucel (hydroxypropylcellulose) (HPC).

“And” between values parts separate entries of the source, which are not always exact repeats. Equal values may be shown once. Toxic doses and inconclusive results are not listed.

Consider `CC1(C)C(=O)C=CC2(C)C1CC(=O)C1(C)C2CCC2(C)C(c3ccoc3)OC(=O)C3OC321` (stereo not drawn), for which the T/C by setting is: (dose: 1.5 mg/kg/injection, schedule: Q01DX009 (ip), vehicle: Klucel (hydroxypropylcellulose) (HPC)) 98 % of control and 102 % of control; (dose: 3.0 mg/kg/injection, schedule: Q01DX009 (ip), vehicle: Klucel (hydroxypropylcellulose) (HPC)) 98 % of control and 102 % of control; (dose: 6.0 mg/kg/injection, schedule: Q01DX009 (ip), vehicle: Klucel (hydroxypropylcellulose) (HPC)) 91 % of control and 96 % of control; (dose: 12.0 mg/kg/injection, schedule: Q01DX009 (ip), vehicle: Klucel (hydroxypropylcellulose) (HPC)) 102 % of control and 96 % of control; (dose: 24.0 mg/kg/injection, schedule: Q01DX009 (ip), vehicle: Klucel (hydroxypropylcellulose) (HPC)) 100 % of control and 102 % of control.

Regarding `O=C(CC(NO)c1ccccc1)NO` (stereo not drawn), the T/C under setting [1] is 99 % of control, the T/C under setting [2] is 105 % of control and the T/C under setting [3] is 115 % of control.

Consider `CCOC(=O)NC(C)(C)CN(C(=O)OCC)c1ccccc1`, for which the T/C runs as follows: under setting [4], 94 % of control; under setting [5], 116 % of control; (dose: 200.0 mg/kg/injection, schedule: Q04DX003 (ip), vehicle: saline with Tween-80) 95 % of control; (dose: 400.0 mg/kg/injection, schedule: Q01DX009 (ip), vehicle: saline with Tween-80) 116 % of control; (dose: 400.0 mg/kg/injection, schedule: Q04DX003 (ip), vehicle: saline with Tween-80) 104 % of control.

Turning to `COc1cc2c(cc1OC)NC(=O)C2`, the T/C reads like this: (dose: 50.0 mg/kg/injection, schedule: Q04DX003 (ip), vehicle: saline with Tween-80) 97 % of control; (dose: 100.0 mg/kg/injection, schedule: Q04DX003 (ip), vehicle: saline with Tween-80) 98 % of control.

As to `O=C(c1ccccc1)C(O)NC(=S)c1ccc(Cl)cc1` (stereo not drawn), the T/C by setting is: (dose: 50.0 mg/kg/injection, schedule: Q01DX009 (ip), vehicle: saline with Tween-80) 107 % of control; under setting [4], 113 % of control; under setting [5], 113 % of control.

With `CC(=O)c1coc2c(c(C)nn2-c2ccccc2)c1=O`, the T/C runs as follows: (dose: 7.5 mg/kg/injection, schedule: Q01DX005 (ip), vehicle: Klucel (hydroxypropylcellulose) (HPC)) 99 % of control; (dose: 15.0 mg/kg/injection, schedule: Q01DX005 (ip), vehicle: Klucel (hydroxypropylcellulose) (HPC)) 100 % of control; under setting [6], 100 % of control.

As for `NC(N)=NCCCC1NC(=O)C(Cc2ccc(O)cc2)NC1=O` (stereo not drawn), the T/C (dose: 50.0 mg/kg/injection, schedule: Q01DX005 (ip), vehicle: saline with Tween-80) is 98 % of control and 93 % of control; the T/C (dose: 100.0 mg/kg/injection, schedule: Q01DX005 (ip), vehicle: saline with Tween-80) is 100 % of control; the T/C (dose: 200.0 mg/kg/injection, schedule: Q01DX005 (ip), vehicle: saline with Tween-80) was 100 % of control and 101 % of control.

As to `OC1CN(CCCCCCN2CC(O)ON2)NO1` (stereo not drawn), the T/C runs as follows: under setting [7], 93 % of control; under setting [8], 93 % of control; under setting [9], 97 % of control.

Take `O=C1CSC(c2ccccc2)N1c1nncs1` (stereo not drawn): the T/C was 100 % of control under setting [6]; 101 % of control (dose: 60.0 mg/kg/injection, schedule: Q01DX005 (ip), vehicle: Klucel (hydroxypropylcellulose) (HPC)); 101 % of control (dose: 120.0 mg/kg/injection, schedule: Q01DX005 (ip), vehicle: Klucel (hydroxypropylcellulose) (HPC)); 103 % of control (dose: 240.0 mg/kg/injection, schedule: Q01DX005 (ip), vehicle: Klucel (hydroxypropylcellulose) (HPC)).

As to `O=NNc1ccc([N+](=O)[O-])cc1`, the T/C runs as follows: (dose: 3.12 mg/kg/injection, schedule: Q01DX009 (ip), vehicle: water) 102 % of control; (dose: 6.25 mg/kg/injection, schedule: Q01DX009 (ip), vehicle: water) 112 % of control and 121 % of control; (dose: 25.0 mg/kg/injection, schedule: Q01DX009 (ip), vehicle: water) 152 % of control; (dose: 50.0 mg/kg/injection, schedule: Q01DX009 (ip), vehicle: water) 159 % of control.

As to `CCCC(N)P(=O)(O)O` (stereo not drawn), the T/C reads like this: under setting [7], 99 % of control; under setting [8], 93 % of control; under setting [9], 96 % of control; (dose: 400.0 mg/kg/injection, schedule: Q01DX009 (ip), vehicle: saline) 93 % of control.

Take `CN(C)c1ccc(/C=C/c2c(F)cnc3ccccc23)cc1`: the T/C was 114 % of control under setting [10], 101 % of control under setting [11] and 104 % of control under setting [1].

For the compound `CC[N+]1(C)CCCCC1`, the T/C is 107 % of control (dose: 6.25 mg/kg/injection, schedule: Q01DX009 (ip), vehicle: saline); 103 % of control (dose: 12.5 mg/kg/injection, schedule: Q01DX009 (ip), vehicle: saline); 97 % of control (dose: 25.0 mg/kg/injection, schedule: Q01DX009 (ip), vehicle: saline); 97 % of control under setting [7].

`N#CC12C3C4C5C3C1C(C42)n1c(=O)n(-c2ccccc2)c(=O)n15` (stereo not drawn): the T/C was 89 % of control and 90 % of control under setting [10]; 89 % of control and 92 % of control under setting [11]; 90 % of control and 95 % of control under setting [1]; 98 % of control under setting [2]; 95 % of control under setting [3].

Regarding `COc1ccc(/C=C/c2ccc3ccccc3[n+]2C)cc1Br`, the T/C (dose: 12.5 mg/kg/injection, schedule: Q01DX005 (ip), vehicle: Klucel (hydroxypropylcellulose) (HPC)) was 113 % of control; the T/C (dose: 25.0 mg/kg/injection, schedule: Q01DX005 (ip), vehicle: Klucel (hydroxypropylcellulose) (HPC)) is 113 % of control; the T/C (dose: 50.0 mg/kg/injection, schedule: Q01DX005 (ip), vehicle: Klucel (hydroxypropylcellulose) (HPC)) is 113 % of control and 119 % of control.

With `C[n+]1ccc(Nc2ccc(NC(=O)c3ccc(Nc4cc[n+](C)c5ccc(N)cc45)cc3N)cc2)cc1`, the T/C is 111 % of control (dose: 0.18 mg/kg/injection, schedule: Q01DX009 (ip), vehicle: saline with Tween-80); 124 % of control (dose: 0.27 mg/kg/injection, schedule: Q01DX009 (ip), vehicle: saline with Tween-80); 157 % of control (dose: 1.0 mg/kg/injection, schedule: Q01DX009 (ip), vehicle: saline with Tween-80); 154 % of control (dose: 1.33 mg/kg/injection, schedule: Q01DX009 (ip), vehicle: saline with Tween-80); 163 % of control (dose: 1.5 mg/kg/injection, schedule: Q01DX009 (ip), vehicle: saline with Tween-80); 200 % of control (dose: 2.0 mg/kg/injection, schedule: Q01DX009 (ip), vehicle: saline with Tween-80). For the same compound, the T/C was 245 % of control (dose: 3.0 mg/kg/injection, schedule: Q01DX009 (ip), vehicle: saline with Tween-80); 271 % of control (dose: 3.13 mg/kg/injection, schedule: Q01DX009 (ip), vehicle: saline with Tween-80); 257 % of control (dose: 4.5 mg/kg/injection, schedule: Q01DX009 (ip), vehicle: saline with Tween-80); 154 % of control (dose: 5.0 mg/kg/injection, schedule: Q04DX003 (ip), vehicle: saline with Tween-80); 274 % of control (dose: 6.25 mg/kg/injection, schedule: Q01DX009 (ip), vehicle: saline with Tween-80); 163 % of control (dose: 7.5 mg/kg/injection, schedule: Q04DX003 (ip), vehicle: saline with Tween-80). For the same compound, the T/C is, setting by setting: (dose: 12.5 mg/kg/injection, schedule: Q01DX009 (ip), vehicle: saline with Tween-80) 275 % of control; (dose: 25.0 mg/kg/injection, schedule: Q01DX009 (ip), vehicle: saline with Tween-80) 100 % of control.

As to `COc1ccc2cc1Oc1cc3c(cc1OC)CC[N+](C)(C)C3Cc1ccc(cc1)Oc1c(OC)c(OC)cc3c1C(C2)[N+](C)(C)CC3` (stereo not drawn), the T/C runs as follows: (dose: 0.03 mg/kg/injection, schedule: Q01DX009 (ip), vehicle: saline) 102 % of control and 106 % of control; (dose: 0.07 mg/kg/injection, schedule: Q01DX009 (ip), vehicle: saline) 100 % of control and 113 % of control; (dose: 0.15 mg/kg/injection, schedule: Q01DX009 (ip), vehicle: saline) 105 % of control and 106 % of control and 121 % of control; (dose: 0.31 mg/kg/injection, schedule: Q01DX009 (ip), vehicle: saline) 105 % of control and 112 % of control and 96 % of control; (dose: 0.62 mg/kg/injection, schedule: Q01DX009 (ip), vehicle: saline) 118 % of control.
